Data taken from ChEMBL document CHEMBL4152326 (2018).

The compounds below were run on Pseudomonas aeruginosa (assay: Antimicrobial activity against Pseudomonas aeruginosa SR24 in presence of human apo-transferrin by broth microdilution method).
Type: functional
Work on `CC(C)(O/N=C(\C(=O)N[C@@H]1C(=O)N2C(C(=O)[O-])=C(C[N+](C)(C)C3CCN(C(=O)c4ccc(O)c(O)c4Cl)CC3)CS[C@H]12)c1csc(N)n1)C(=O)O` yielded an MIC of 0.5 µg/mL. Work on `C[C@@H](O/N=C(\C(=O)N[C@@H]1C(=O)N2C(C(=O)[O-])=C(C[N+]3(CCNC(=O)c4ccc(O)c(O)c4Cl)CCCC3)CS[C@H]12)c1csc(N)n1)C(=O)O` yielded an MIC of 0.25 µg/mL. `CC(C)(O/N=C(\C(=O)N[C@@H]1C(=O)N2C(C(=O)[O-])=C(C[N+]3(CCNC(=O)c4cc(O)c(O)cc4Cl)CCCC3)CS[C@H]12)c1csc(N)n1)C(=O)O` was tested, and the MIC was 0.063 µg/mL.

What follows are compounds tested on Pseudomonas aeruginosa (assay: Antimicrobial activity against AmpC overproducing Pseudomonas aeruginosa SR24-12 in presence of human apo-transferrin by broth microdilution method).
Type: functional
In the case of `CC(C)(O/N=C(\C(=O)N[C@@H]1C(=O)N2C(C(=O)[O-])=C(C[N+](C)(C)C3CCN(C(=O)c4ccc(O)c(O)c4Cl)CC3)CS[C@H]12)c1csc(N)n1)C(=O)O`, the MIC is reported as 1 µg/mL. `C[C@@H](O/N=C(\C(=O)N[C@@H]1C(=O)N2C(C(=O)[O-])=C(C[N+]3(CCNC(=O)c4ccc(O)c(O)c4Cl)CCCC3)CS[C@H]12)c1csc(N)n1)C(=O)O` was tested, and the MIC was 0.5 µg/mL. For `CC(C)(O/N=C(\C(=O)N[C@@H]1C(=O)N2C(C(=O)[O-])=C(C[N+]3(CCNC(=O)c4cc(O)c(O)cc4Cl)CCCC3)CS[C@H]12)c1csc(N)n1)C(=O)O`, the MIC was 0.125 µg/mL.

These compounds were tested on Pseudomonas aeruginosa (assay: Antimicrobial activity against IMP-1 producing Pseudomonas aeruginosa SR27001 in presence of human apo-transferrin by broth microdilution method).
Type: functional
For `CC(C)(O/N=C(\C(=O)N[C@@H]1C(=O)N2C(C(=O)[O-])=C(C[N+](C)(C)C3CCN(C(=O)c4ccc(O)c(O)c4Cl)CC3)CS[C@H]12)c1csc(N)n1)C(=O)O`, the MIC was 4 µg/mL. Work on `C[C@@H](O/N=C(\C(=O)N[C@@H]1C(=O)N2C(C(=O)[O-])=C(C[N+]3(CCNC(=O)c4ccc(O)c(O)c4Cl)CCCC3)CS[C@H]12)c1csc(N)n1)C(=O)O` yielded an MIC of 1 µg/mL. Work on `CC(C)(O/N=C(\C(=O)N[C@@H]1C(=O)N2C(C(=O)[O-])=C(C[N+]3(CCNC(=O)c4cc(O)c(O)cc4Cl)CCCC3)CS[C@H]12)c1csc(N)n1)C(=O)O` yielded an MIC of 2 µg/mL.

These compounds were tested on Pseudomonas aeruginosa (assay: Antimicrobial activity against VIM-2 producing Pseudomonas aeruginosa SBRKM-28 in presence of human apo-transferrin by broth microdilution method).
Type: functional
In the case of `CC(C)(O/N=C(\C(=O)N[C@@H]1C(=O)N2C(C(=O)[O-])=C(C[N+](C)(C)C3CCN(C(=O)c4ccc(O)c(O)c4Cl)CC3)CS[C@H]12)c1csc(N)n1)C(=O)O`, the MIC is reported as 0.5 µg/mL. `C[C@@H](O/N=C(\C(=O)N[C@@H]1C(=O)N2C(C(=O)[O-])=C(C[N+]3(CCNC(=O)c4ccc(O)c(O)c4Cl)CCCC3)CS[C@H]12)c1csc(N)n1)C(=O)O` was tested, and the MIC was 0.125 µg/mL.

Each compound was assayed on Pseudomonas aeruginosa (assay: Antimicrobial activity against IMP-1 producing Pseudomonas aeruginosa SR27060 in presence of human apo-transferrin by broth microdilution method).
Type: functional
In the case of `CC(C)(O/N=C(\C(=O)N[C@@H]1C(=O)N2C(C(=O)[O-])=C(C[N+](C)(C)C3CCN(C(=O)c4ccc(O)c(O)c4Cl)CC3)CS[C@H]12)c1csc(N)n1)C(=O)O`, the MIC is reported as 4 µg/mL. `C[C@@H](O/N=C(\C(=O)N[C@@H]1C(=O)N2C(C(=O)[O-])=C(C[N+]3(CCNC(=O)c4ccc(O)c(O)c4Cl)CCCC3)CS[C@H]12)c1csc(N)n1)C(=O)O` gave an MIC of 2 µg/mL. `CC(C)(O/N=C(\C(=O)N[C@@H]1C(=O)N2C(C(=O)[O-])=C(C[N+]3(CCNC(=O)c4cc(O)c(O)cc4Cl)CCCC3)CS[C@H]12)c1csc(N)n1)C(=O)O` was tested, and the MIC was 2 µg/mL.

The compounds below were run on Pseudomonas aeruginosa (assay: Antimicrobial activity against Pseudomonas aeruginosa 27060deltaR1 harboring deletion of R1 plasmid in presence of human apo-transferrin by broth microdilution method).
Type: functional
Work on `CC(C)(O/N=C(\C(=O)N[C@@H]1C(=O)N2C(C(=O)[O-])=C(C[N+](C)(C)C3CCN(C(=O)c4ccc(O)c(O)c4Cl)CC3)CS[C@H]12)c1csc(N)n1)C(=O)O` yielded an MIC of 1 µg/mL. With `C[C@@H](O/N=C(\C(=O)N[C@@H]1C(=O)N2C(C(=O)[O-])=C(C[N+]3(CCNC(=O)c4ccc(O)c(O)c4Cl)CCCC3)CS[C@H]12)c1csc(N)n1)C(=O)O` the MIC was 1 µg/mL. With `CC(C)(O/N=C(\C(=O)N[C@@H]1C(=O)N2C(C(=O)[O-])=C(C[N+]3(CCNC(=O)c4cc(O)c(O)cc4Cl)CCCC3)CS[C@H]12)c1csc(N)n1)C(=O)O` the MIC was 1 µg/mL.

The compounds below were run on Stenotrophomonas maltophilia (assay: Antimicrobial activity against L-1 producing Stenotrophomonas maltophilia SR21970 in presence of human apo-transferrin by broth microdilution method).
Type: functional
With `CC(C)(O/N=C(\C(=O)N[C@@H]1C(=O)N2C(C(=O)[O-])=C(C[N+](C)(C)C3CCN(C(=O)c4ccc(O)c(O)c4Cl)CC3)CS[C@H]12)c1csc(N)n1)C(=O)O` the MIC was 1 µg/mL. `C[C@@H](O/N=C(\C(=O)N[C@@H]1C(=O)N2C(C(=O)[O-])=C(C[N+]3(CCNC(=O)c4ccc(O)c(O)c4Cl)CCCC3)CS[C@H]12)c1csc(N)n1)C(=O)O` gave an MIC of 0.5 µg/mL. With `CC(C)(O/N=C(\C(=O)N[C@@H]1C(=O)N2C(C(=O)[O-])=C(C[N+]3(CCNC(=O)c4cc(O)c(O)cc4Cl)CCCC3)CS[C@H]12)c1csc(N)n1)C(=O)O` the MIC was 0.25 µg/mL.

The compounds below were run on Acinetobacter baumannii (assay: Antimicrobial activity against OXA-23/OXA-58 producing Acinetobacter baumannii SR27323 in presence of human apo-transferrin by broth microdilution method).
Type: functional
In the case of `CC(C)(O/N=C(\C(=O)N[C@@H]1C(=O)N2C(C(=O)[O-])=C(C[N+](C)(C)C3CCN(C(=O)c4ccc(O)c(O)c4Cl)CC3)CS[C@H]12)c1csc(N)n1)C(=O)O`, the MIC is reported as 2 µg/mL. `C[C@@H](O/N=C(\C(=O)N[C@@H]1C(=O)N2C(C(=O)[O-])=C(C[N+]3(CCNC(=O)c4ccc(O)c(O)c4Cl)CCCC3)CS[C@H]12)c1csc(N)n1)C(=O)O` gave an MIC of 1 µg/mL. Work on `CC(C)(O/N=C(\C(=O)N[C@@H]1C(=O)N2C(C(=O)[O-])=C(C[N+]3(CCNC(=O)c4cc(O)c(O)cc4Cl)CCCC3)CS[C@H]12)c1csc(N)n1)C(=O)O` yielded an MIC of 1 µg/mL.

The compounds below were run on Klebsiella pneumoniae (assay: Antimicrobial activity against KPC-2 producing Klebsiella pneumoniae ATCC BAA-1705 in presence of human apo-transferrin by broth microdilution method).
Type: functional
Work on `CC(C)(O/N=C(\C(=O)N[C@@H]1C(=O)N2C(C(=O)[O-])=C(C[N+](C)(C)C3CCN(C(=O)c4ccc(O)c(O)c4Cl)CC3)CS[C@H]12)c1csc(N)n1)C(=O)O` yielded an MIC of 0.125 µg/mL. With `C[C@@H](O/N=C(\C(=O)N[C@@H]1C(=O)N2C(C(=O)[O-])=C(C[N+]3(CCNC(=O)c4ccc(O)c(O)c4Cl)CCCC3)CS[C@H]12)c1csc(N)n1)C(=O)O` the MIC was 0.063 µg/mL. `CC(C)(O/N=C(\C(=O)N[C@@H]1C(=O)N2C(C(=O)[O-])=C(C[N+]3(CCNC(=O)c4cc(O)c(O)cc4Cl)CCCC3)CS[C@H]12)c1csc(N)n1)C(=O)O` gave an MIC of no more than 0.031 µg/mL.

Each compound was assayed on Escherichia coli (assay: Antimicrobial activity against SHV-4 producing Escherichia coli ATCC BAA-200 in presence of human apo-transferrin by broth microdilution method).
Type: functional
`CC(C)(O/N=C(\C(=O)N[C@@H]1C(=O)N2C(C(=O)[O-])=C(C[N+](C)(C)C3CCN(C(=O)c4ccc(O)c(O)c4Cl)CC3)CS[C@H]12)c1csc(N)n1)C(=O)O` gave an MIC of 2 µg/mL. `C[C@@H](O/N=C(\C(=O)N[C@@H]1C(=O)N2C(C(=O)[O-])=C(C[N+]3(CCNC(=O)c4ccc(O)c(O)c4Cl)CCCC3)CS[C@H]12)c1csc(N)n1)C(=O)O` gave an MIC of 1 µg/mL. `CC(C)(O/N=C(\C(=O)N[C@@H]1C(=O)N2C(C(=O)[O-])=C(C[N+]3(CCNC(=O)c4cc(O)c(O)cc4Cl)CCCC3)CS[C@H]12)c1csc(N)n1)C(=O)O` gave an MIC of 2 µg/mL.

The compounds below were run on Pseudomonas aeruginosa (assay: Antibacterial activity against Pseudomonas aeruginosa SR27001 infected in Jcl:ICR mouse systemic infection model assessed as increase in mouse survival rate administered iv 1 to 5 hrs post infection measured over 7 days).
Type: functional
Compound `C[C@@H](O/N=C(\C(=O)N[C@@H]1C(=O)N2C(C(=O)[O-])=C(C[N+]3(CCNC(=O)c4ccc(O)c(O)c4Cl)CCCC3)CS[C@H]12)c1csc(N)n1)C(=O)O` has an ED50 of 5.48 mg/kg. `CC(C)(O/N=C(\C(=O)N[C@@H]1C(=O)N2C(C(=O)[O-])=C(C[N+]3(CCNC(=O)c4cc(O)c(O)cc4Cl)CCCC3)CS[C@H]12)c1csc(N)n1)C(=O)O` showed an ED50 of 10.2 mg/kg.
